Tested on: SIRT2
Assay: Effects of Tempol on gene expression in cardiac tissue of mice, chip-based microarray
Format: in vivo
Details: 5 mg/g of food from 14 to 31 months after birth
Method: To assess the effects of Tempol on gene expression, Tempol was administered to experimental mice at a dose of 5 mg/g of food from 14 months to 31 months after birth. Mice receiving the same food without the addition of Tempol were used as a negative control. At the age of 31 months, the experimental animals were sacrificed and the hearts were surgically removed. The expression of a broad spectrum of genes in the cardiac tissue was assessed using chip-based microarray technology. Such chips are well known in the art and are widely used to assess gene expression.

CC1(C)CC(O)CC(C)(C)N1[O] [Tempol, 4-hydroxy-2,2,6,6-tetramethylpiperidine-1-oxyl]
Fold change (SIRT2 expression in cardiac tissue after Tempol administration) (hearts at 31 months, vs. same food without Tempol, P-value 0.00): 1.16 | SIRT2 expression in the cardiac tissue (microarray, vs. negative control): statistically significant increase in expression
